Source: patent US12655145B2, “P2X3 modulators” (GlaxoSmithKline Intellectual Property (No. 3) Limited, priority 2020, dated 2026)

molecular target: T1, P2X3 (Homo sapiens, UniProt P56373); test: P2X3 Antagonist Assay (FLIPR calcium, Fluo-8, HEK293 cells transfected with human ion channel cDNAs, αβ-meATP stimulation); format: cell-based; conditions: HEK293, @ 1 μM, antagonist mode, αβ-meATP 3 μM, read-out: P2X3 IC50 column, given as % @ 1 μM
T1 construct: expressed in transfected cells; host or cells: HEK293
T1 sequence (P56373 1-397): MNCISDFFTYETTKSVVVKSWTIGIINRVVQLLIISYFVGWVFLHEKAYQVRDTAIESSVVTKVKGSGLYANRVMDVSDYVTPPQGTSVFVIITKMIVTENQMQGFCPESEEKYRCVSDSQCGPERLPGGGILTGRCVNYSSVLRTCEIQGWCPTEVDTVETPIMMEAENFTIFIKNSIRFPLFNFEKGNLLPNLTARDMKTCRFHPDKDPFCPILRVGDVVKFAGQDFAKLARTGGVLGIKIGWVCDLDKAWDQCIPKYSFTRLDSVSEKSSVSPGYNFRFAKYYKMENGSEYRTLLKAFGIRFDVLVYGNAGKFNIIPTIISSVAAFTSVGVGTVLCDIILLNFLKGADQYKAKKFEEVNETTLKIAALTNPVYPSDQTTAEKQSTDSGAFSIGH
Experimental: Example 59: P2X3 Antagonist Assay
HEK293 were transiently or stably transfected with human ion channel cDNAs as indicated in section 1. Stable transfectants were selected by coexpression with the antibiotic-resistance gene(s) incorporated into the expression plasmid(s). Selection pressure was maintained by including selection antibiotics in the culture medium. HEK293 cells were cultured in Dulbecco's Modified Eagle Medium/Nutrient Mixture F-12 (D-MEM/F-12) supplemented with 10% fetal bovine serum, 100 U/mL penicillin G sodium, 100 J·Lg/mL streptomycin sulfate and appropriate selection antibiotics.
The effect of each test article to act as an antagonist was evaluated. Each test article was evaluated at eight (8) concentrations (0.001, 0.003, 0.01, 0.03, 0.1, 0.3, 1 and 3 μM, n=3) with 4 replicates for each concentration. Experiments were performed with the FLIPR calcium sensitive dye kit (Fluo-8 dye, AAT, Bioquest) according to the manufacturer's instructions. • Dye-loading: Growth media will be removed and add 20 μL of Mg^++-free HBPS containing Fluo-8 for 30 min at 37° C. • Preincubation (FLIPR step 1): Adding 5× (5 μL) test, vehicle, or control article solutions in Mg^+-free HBPS to each well for 20 minutes at room temperature, protected from light. • Stimulation (FLIPR step 2): After pre-incubation, cells will be stimulated with 6× (5 μL) αβ-meATP at final concentration of 3 μM prepared in Mg^++-free HBPS. • Non-Specific Calcium Influx (FLIPR step 3): 5 minutes after stimulation solution addition, non-specific calcium influx will be activated by adding 7×(5 μL) ionomycin at a final concentration of 5 μM. Fluorescence will be recorded continuously during FLIPR steps 2 and 3. • Positive Control Antagonist: PPADS (1 mM).
Data acquisition was performed via the FLIPRControl software that is supplied with the FLIPR System (MDS-AT) and data was analyzed using Microsoft Excel2003 (Microsoft Corp., Redmond, WA).

| inhibition at 1 µM [%] | SMILES |
| --- | --- |
| 10 | CNC(=O)c1cc(F)c(-c2[nH]c3cc(C)ccc3c2C[C@H]2CN(C(=O)OC)CCO2)c(F)c1 [Compound A24, methyl (S)-2-((2-(2,6-difluoro-4-(methylcarbamoyl)phenyl)6-methyl-1H-indol-3-yl)methyl)morpholine-4-carboxylate] |
| 6 | CNC(=O)c1cc(F)c(-c2nc3cc(C)cnn3c2C[C@H]2CN(C(=O)OC)CCO2)c(F)c1 [Compound A27, methyl (S)-2-((2-(2,6-difluoro-4-(methylcarbamoyl)phenyl)-7-methylimidazo[1,2-b]pyridazin-3-yl)methyl)morpholine-4-carboxylate] |
| 5 | CNC(=O)c1cc(F)c(-c2c(C[C@H]3CN(C(=O)OC)CCO3)nc3nc(C)ccn23)c(F)c1 [Compound A33, methyl (S)-2-((3-(2,6-difluoro-4-(methylcarbamoyl)phenyl)-7-methylimidazo[1,2-a]pyrimidin-2-yl)methyl)morpholine-4-carboxylate] |

same assay, conditions: antagonist mode, αβ-meATP 3 μM

| IC50 [nM] | SMILES |
| --- | --- |
| 100 to 1000 | CNC(=O)c1cc(F)c(-c2nc3cc(C(F)(F)F)ccn3c2C[C@H]2CN(C(=O)OC)CCO2)c(F)c1 [Compound A5, methyl (S)-2-((2-(2,6-difluoro-4-(methylcarbamoyl)phenyl)-7-(trifluoromethyl)imidazo[1,2-a]pyridin-3-yl)methyl)morpholine-4-carboxylate] |
| < 100 | CNC(=O)c1cc(F)c(-c2nc3cc(C)ccn3c2C[C@H]2CN(C(=O)OC)CCO2)c(F)c1F [Compound A6, methyl (S)-2-((7-methyl-2-(2,3,6-trifluoro-4-(methylcarbamoyl)-phenyl)imidazo[1,2-a]pyridin-3-yl)methyl)morpholine-4-carboxylate] |
| < 100 | CNC(=O)c1ccc(-c2nc3cc(Cl)ccn3c2C[C@H]2CN(C(=O)OC)CCO2)c(C)c1 [Compound A7, methyl (S)-2-((7-chloro-2-(2-methyl-4-(methylcarbamoyl)phenyl)-imidazo[1,2-a]pyridin-3-yl)methyl)morpholine-4-carboxylate] |
| < 100 | CNC(=O)c1ccc(-c2nc3cc(C)ccn3c2C[C@H]2CN(C(=O)OC)CCO2)c(Cl)c1 [Compound A8, methyl (S)-2-((2-(2-chloro-4-(methylcarbamoyl)phenyl)-7-methyl-imidazo[1,2-a]pyridin-3-yl)methyl)morpholine-4-carboxylate] |
| < 100 | CNC(=O)c1ccc(-c2nc3cc(Cl)ccn3c2C[C@H]2CN(C(=O)OC)CCO2)c(Cl)c1 [Compound A9, methyl (S)-2-((2-(2-chloro-4-(methylcarbamoyl)phenyl)-7-chloro-imidazo[1,2-a]pyridin-3-yl)methyl)morpholine-4-carboxylate] |
| < 100 | CNC(=O)c1ccc(-c2nc3cc(C)ccn3c2C[C@H]2CN(C(=O)OC)CCO2)c(F)c1 [Compound A10, methyl (S)-2-((2-(2-fluoro-4-(methylcarbamoyl)phenyl)-7-methylimidazo[1,2-a]pyridin-3-yl)methyl)morpholine-4-carboxylate] |
| < 100 | CNC(=O)c1ccc(-c2nc3cc(Cl)ccn3c2C[C@H]2CN(C(=O)OC)CCO2)c(F)c1 [Compound A11, methyl (S)-2-((2-(2-fluoro-4-(methylcarbamoyl)phenyl)-7-chloroimidazo[1,2-a]pyridin-3-yl)methyl)morpholine-4-carboxylate] |
| < 100 | CNC(=O)c1cc(C)c(-c2nc3cc(C)ccn3c2C[C@H]2CN(C(=O)OC)CCO2)cc1F [Compound A12, methyl (S)-2-((2-(5-fluoro-2-methyl-4-(methylcarbamoyl)phenyl)-7-methylimidazo[1,2-a]pyridin-3-yl)methyl)morpholine-4-carboxylate] |
| < 100 | CNC(=O)c1cc(C)c(-c2nc3cc(Cl)ccn3c2C[C@H]2CN(C(=O)OC)CCO2)cc1F [Compound A13, methyl (S)-2-((7-chloro-2-(5-fluoro-2-methyl-4-(methylcarbamoyl)phenyl)imidazo[1,2-a]pyridin-3-yl)methyl)morpholine-4-carboxylate] |
| < 100 | CNC(=O)c1cc(F)c(-c2nc3cc(C)ccn3c2CC2CCN(C(=O)OC)CC2)c(F)c1 [Compound A20, methyl 4-((2-(2,6-difluoro-4-(methylcarbamoyl)phenyl)-7-methylimidazo[1,2-a]pyridin-3-yl)methyl)piperidine-1-carboxylate] |
| 100 to 1000 | CNC(=O)c1cc(F)c(-c2cc3cc(C)ccc3n2C[C@H]2CN(C(=O)OC)CCO2)c(F)c1 [Compound A23, methyl (S)-2-((2-(2,6-difluoro-4-(methylcarbamoyl)phenyl)-5-methyl-1H-indol-1-yl)methyl)morpholine-4-carboxylate] |
| > 1000 | CNC(=O)c1cc(F)c(-c2cc3cc(C)cnc3n2C[C@H]2CN(C(=O)OC)CCO2)c(F)c1 [Compound A25, methyl (S)-2-((2-(2,6-difluoro-4-(methylcarbamoyl)phenyl)-5-methyl-1H-pyrrolo[2,3-b]pyridin-1-yl)methyl)morpholine-4-carboxylate] |
| > 1000 | CNC(=O)c1cc(F)c(-c2[nH]c3cc(C)cnc3c2C[C@H]2CN(C(=O)OC)CCO2)c(F)c1 [Compound A26, methyl (S)-2-((2-(2,6-difluoro-4-(methylcarbamoyl)phenyl)-6-methyl-1H-pyrrolo[3,2-b]pyridin-3-yl)methyl)morpholine-4-carboxylate] |
| < 100 | CNC(=O)c1cc(F)c(-c2nc3nc(C)ccn3c2C[C@H]2CN(C(=O)OC)CCO2)c(F)c1 [Compound A28, methyl (S)-2-((2-(2,6-difluoro-4-(methylcarbamoyl)phenyl)-7-methylimidazo[1,2-a]pyrimidin-3-yl)methyl)morpholine-4-carboxylate] |
| < 100 | CNC(=O)c1cc(F)c(-c2nc3cc(C)ncn3c2C[C@H]2CN(C(=O)OC)CCO2)c(F)c1 [Compound A29, methyl (S)-2-((2-(2,6-difluoro-4-(methylcarbamoyl)phenyl)-7-methylimidazo[1,2-c]pyrimidin-3-yl)methyl)morpholine-4-carboxylate] |
| < 100 | CNC(=O)c1cc(F)c(-c2nc3cc(C)ccn3c2C[C@H]2CN(C(=O)OC)CCO2)c(OC)c1F [Compound A30, methyl (S)-2-((2-(3,6-difluoro-2-methoxy-4-(methylcarbamoyl)-phenyl)-7-methylimidazo[1,2-a]pyridin-3-yl)methyl)morpholine-4-carboxylate] |
| > 1000 | CNC(=O)c1cc(F)c(-c2[nH]c3cccc(C)c3c2C[C@H]2CN(C(=O)OC)CCO2)c(F)c1 [Compound A31, methyl (S)-2-((2-(2,6-difluoro-4-(methylcarbamoyl)phenyl)-4-methyl-1H-indol-3-yl)methyl)morpholine-4-carboxylate] |
| < 100 | CNC(=O)c1ccc(-c2nc3cc(C(F)F)ccn3c2C[C@H]2CN(C(=O)OC)CCO2)c(Cl)c1 [Compound A32, methyl (S)-2-((2-(2-chloro-4-(methylcarbamoyl)phenyl)-7-(di-fluoromethyl)imidazo[1,2-a]pyridin-3-yl)methyl)morpholine-4-carboxylate] |
| 100 to 1000 | CNC(=O)c1cc(F)c(-c2nc3n(c2C[C@H]2CN(C(=O)OC)CCO2)CCC(C)C3)c(F)c1 (stereo partly drawn) [Compound A34, methyl (2S)-2-((2-(2,6-difluoro-4-(methylcarbamoyl)phenyl)-7-methyl-5,6,7,8-tetrahydroimidazo[1,2-a]pyridin-3-yl)methyl)morpholine-4-carboxylate] |
| 100 to 1000 | CNC(=O)c1cc(F)c(-c2c(C[C@H]3CN(C(=O)OC)CCO3)nc3cc(C)ncn23)c(F)c1 [Compound A37] |
| < 100 | CNC(=O)c1cc(F)c(-c2nc3cc(Cl)ccn3c2C[C@H]2CN(C(=O)OC)CCO2)c(OC)c1F [Compound A40, methyl (S)-2-((7-chloro-2-(3,6-difluoro-2-methoxy-4-(methyl-carbamoyl)phenyl)imidazo[1,2-a]pyridin-3-yl)methyl)morpholine-4-carboxylate] |
| 100 to 1000 | CNC(=O)c1cc(F)c(-c2nc3cc(C(F)F)ccn3c2C[C@H]2CN(C(=O)OC)CCO2)c(OC)c1F [Compound A41, methyl (S)-2-((2-(3,6-difluoro-2-methoxy-4-(methylcarbamoyl)-phenyl)-7-(difluoromethyl)imidazo[1,2-a]pyridin-3-yl)methyl)morpholine-4-carboxylate] |
